Measured values: paper PMC12010937, “Evaluation of FXR Activity in Pollutants Identified in Sewage Sludge and Subsequent in Vitro and in Vivo Characterization of Metabolic Effects of Triphenyl Phosphate” (Environmental Health Perspectives, 2025)
Where two headings read alike, the source gives them in different places.

Tested on: C57BL/6N mice
Details: TPHP-H group, liver
[1] = adduct [M+Na]+, first of two TG 52:3 lines
[2] = adduct [M+Na]+, second of two TG 52:3 lines

## O=P(Oc1ccccc1)(Oc1ccccc1)Oc1ccccc1 [TPHP, triphenyl phosphate]
Adduct [M+H]+
  Z-score of CAR 6:0: 0.97
  Z-score of CAR 10:0: 0.72
  Z-score of CAR 12:0: 0.32
  Z-score of CAR 16:2: 1.03
  Z-score of CAR 18:2: 1.01
  Z-score of CAR 18:4: 0.35
  Z-score of CAR 20:4: 0.29
  Z-score of NAE 14:0: -0.67
  Z-score of NAE 20:5: -0.01
  Z-score of PC 40:6: -0.91
  Z-score of PS 36:4: 0.46
  Z-score of SM 27:5;O2: 0.61
  Z-score of SM 28:3;O3: 0.70
  Z-score of SM 31:3;O3: -0.94
  Z-score of SM 41:2;O2: 0.44
  average intensity of CAR 6:0: 3598107
  average intensity of CAR 10:0: 1728654
  average intensity of CAR 12:0: 2142093
  average intensity of CAR 16:2: 3030917
  average intensity of CAR 18:2: 20111001
  average intensity of CAR 18:4: 9217007
  average intensity of CAR 20:4: 30801597
  average intensity of NAE 14:0: 23845
  average intensity of NAE 20:5: 31668356
  average intensity of PC 40:6: 6977163
  average intensity of PS 36:4: 1402007
  average intensity of SM 27:5;O2: 18765822
  average intensity of SM 28:3;O3: 1926974
  average intensity of SM 31:3;O3: 284040
  average intensity of SM 41:2;O2: 8959905
Adduct [M+NH4]+
  Z-score of BMP 25:4: -0.92
  Z-score of BMP 30:5: -0.72
  Z-score of BMP 38:4: -0.80
  Z-score of PG 21:2: -0.95
  Z-score of PI 39:10: -0.92
  Z-score of TG 48:11: -0.82
  Z-score of TG 55:4: 1.02
  average intensity of BMP 25:4: 4738753
  average intensity of BMP 30:5: 17597
  average intensity of BMP 38:4: 940807
  average intensity of PG 21:2: 816725
  average intensity of PI 39:10: 61034
  average intensity of TG 48:11: 5429634
  average intensity of TG 55:4: 11320635
Adduct [M+Na]+
  Z-score of Cer 42:1;O2: -0.92
  Z-score of Cer 64:6;O2: 0.66
  Z-score of DG 19:1: -0.58
  Z-score of DG 26:5: -0.58
  Z-score of DG 26:6: -0.75
  Z-score of PC 29:5: -0.84
  Z-score of PC 38:6: -0.76
  Z-score of PC 42:9: -0.79
  Z-score of PS 40:7: 0.85
  Z-score of TG 52:2: 0.76
  Z-score of TG 52:4: 0.88
  average intensity of Cer 42:1;O2: 679331
  average intensity of Cer 64:6;O2: 17434974
  average intensity of DG 19:1: 4218
  average intensity of DG 26:5: 1190306
  average intensity of DG 26:6: 269918
  average intensity of PC 29:5: 1903378
  average intensity of PC 38:6: 3451074
  average intensity of PC 42:9: 130359
  average intensity of PS 40:7: 5213900
  average intensity of TG 52:2: 10933392
  average intensity of TG 52:4: 3390540
[1]
  Z-score of TG 52:3: 0.89
  average intensity of TG 52:3: 1451015
[2]
  Z-score of TG 52:3: 0.90
  average intensity of TG 52:3: 11832628
Adduct [M-H]-
  Z-score of Cer 40:1;O2: -0.86
  Z-score of Cer 41:1;3O(2OH): -0.76
  Z-score of Cer 42:1;3O(2OH): -0.75
  Z-score of Cer 43:1;3O(2OH): -0.75
  Z-score of FA 10:1: -0.63
  Z-score of FA 14:2: 0.87
  Z-score of FA 16:2;O: 0.12
  Z-score of FA 19:2;O2: 0.47
  Z-score of PG 34:2: -0.59
  Z-score of PG 44:12: -0.58
  Z-score of PI 36:3: -0.62
  Z-score of PI 38:4: 0.28
  average intensity of Cer 40:1;O2: 112540
  average intensity of Cer 41:1;3O(2OH): 650455
  average intensity of Cer 42:1;3O(2OH): 109690
  average intensity of Cer 43:1;3O(2OH): 95819
  average intensity of FA 10:1: 124984
  average intensity of FA 14:2: 2337946
  average intensity of FA 16:2;O: 718403
  average intensity of FA 19:2;O2: 6586718
  average intensity of PG 34:2: 89164
  average intensity of PG 44:12: 16526
  average intensity of PI 36:3: 224637
  average intensity of PI 38:4: 36494581
